pIC50: −log10 of the molar value. Read-outs that look alike come from different tables or passages of the source.
Molecular target: purified recombinant human FGFR2 protein (Homo sapiens (Human), UniProt P21802)
Experiment: Measurement of inhibitory effect on FGFR2 kinase activity
Format: biochemical
Method: Measurement of Inhibitory Effect on FGFR2 Kinase Activity
EDTA (final concentration: 30 mM) diluted with a separation buffer (Caliper Life Sciences, Inc.) was added thereto to terminate the kinase reaction. […] The level of phosphorylation was determined from the quantitative ratio.

purified recombinant human FGFR2 protein, sequence (P21802 22-821): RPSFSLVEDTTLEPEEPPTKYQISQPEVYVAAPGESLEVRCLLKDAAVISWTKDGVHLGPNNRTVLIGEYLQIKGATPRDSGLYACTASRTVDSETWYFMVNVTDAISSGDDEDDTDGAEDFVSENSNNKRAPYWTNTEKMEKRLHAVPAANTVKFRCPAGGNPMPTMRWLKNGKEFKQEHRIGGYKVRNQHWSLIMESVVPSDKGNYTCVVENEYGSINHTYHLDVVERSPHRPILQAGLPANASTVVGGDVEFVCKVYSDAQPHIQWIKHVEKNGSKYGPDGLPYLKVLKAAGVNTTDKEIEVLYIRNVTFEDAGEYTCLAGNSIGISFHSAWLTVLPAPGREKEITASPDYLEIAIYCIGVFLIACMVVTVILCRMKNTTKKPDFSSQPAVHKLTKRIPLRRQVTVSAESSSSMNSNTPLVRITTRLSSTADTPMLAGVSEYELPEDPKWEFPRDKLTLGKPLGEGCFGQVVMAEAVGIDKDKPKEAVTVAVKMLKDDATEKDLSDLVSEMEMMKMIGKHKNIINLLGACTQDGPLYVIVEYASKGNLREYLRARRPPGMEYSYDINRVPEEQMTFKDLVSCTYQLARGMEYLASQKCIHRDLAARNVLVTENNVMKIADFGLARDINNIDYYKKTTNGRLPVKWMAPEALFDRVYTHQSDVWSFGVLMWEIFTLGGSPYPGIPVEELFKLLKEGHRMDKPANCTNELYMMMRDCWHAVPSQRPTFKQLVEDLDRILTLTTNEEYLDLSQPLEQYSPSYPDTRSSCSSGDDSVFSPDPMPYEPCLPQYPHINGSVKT

CC(C)c1cc(C#Cc2nn([C@H]3CCN(C(=O)/C=C/CN(C)C)C3)c3ncnc(N)c23)cc(C(C)C)c1 [Ref. Ex. Compound 4, (S)-1-(3-(4-amino-3-((3,5-diisopropylphenyl)ethynyl)-1H-pyrazolo[3,4-d]pyrimidin-1-yl)pyrrolidin-1-yl)-4-(dimethylamino)but-2-en-1-one]
pIC50 (FGFR2 kinase, FL-Peptide 22 substrate, ATP 75 μM, 25° C. for 120 minutes): < 5.00

C=CC(=O)N1C[C@@H](n2cc(C#Cc3cc(OC)cc(OC)c3)c3c(N)ncnc32)C[C@H]1C(=O)OC [Ex. Compound 66, (2S,4S)-methyl 1-acryloyl-4-(4-amino-5-((3,5-dimethoxyphenyl)ethynyl)-7H-pyrrolo[2,3-d]pyrimidin-7-yl)pyrrolidine-2-carboxylate]
pIC50: > 9.52

Source: US9108973B2, “3,5-disubstituted alkynylbenzene compound and salt thereof” (Taiho Pharmaceutical Co., Ltd., priority 2012, dated 2015)
